The assay concerns the target T1, ALK R1275Q (Homo sapiens, UniProt Q9UM73, R1275Q).
T1 construct: purchased Thermo Fisher Scientific (Life Technologies) SelectScreen
The assay is described as follows: SelectScreen LanthaScreen. The class given is binding. As to conditions: read-out: % displacement. Summed up:
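Percent values come from Thermo SelectScreen profiling of NU5455, combining activity and binding assays. CSF1R was run in Z'LYTE format at Km app ATP, and CAMK1 in Adapta format with ATP listed at 10.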
For orientation: TR-FRET usually uses a lanthanide donor and a delayed reading to cut background.

T1 sequence (Q9UM73 19-1620 R1275Q): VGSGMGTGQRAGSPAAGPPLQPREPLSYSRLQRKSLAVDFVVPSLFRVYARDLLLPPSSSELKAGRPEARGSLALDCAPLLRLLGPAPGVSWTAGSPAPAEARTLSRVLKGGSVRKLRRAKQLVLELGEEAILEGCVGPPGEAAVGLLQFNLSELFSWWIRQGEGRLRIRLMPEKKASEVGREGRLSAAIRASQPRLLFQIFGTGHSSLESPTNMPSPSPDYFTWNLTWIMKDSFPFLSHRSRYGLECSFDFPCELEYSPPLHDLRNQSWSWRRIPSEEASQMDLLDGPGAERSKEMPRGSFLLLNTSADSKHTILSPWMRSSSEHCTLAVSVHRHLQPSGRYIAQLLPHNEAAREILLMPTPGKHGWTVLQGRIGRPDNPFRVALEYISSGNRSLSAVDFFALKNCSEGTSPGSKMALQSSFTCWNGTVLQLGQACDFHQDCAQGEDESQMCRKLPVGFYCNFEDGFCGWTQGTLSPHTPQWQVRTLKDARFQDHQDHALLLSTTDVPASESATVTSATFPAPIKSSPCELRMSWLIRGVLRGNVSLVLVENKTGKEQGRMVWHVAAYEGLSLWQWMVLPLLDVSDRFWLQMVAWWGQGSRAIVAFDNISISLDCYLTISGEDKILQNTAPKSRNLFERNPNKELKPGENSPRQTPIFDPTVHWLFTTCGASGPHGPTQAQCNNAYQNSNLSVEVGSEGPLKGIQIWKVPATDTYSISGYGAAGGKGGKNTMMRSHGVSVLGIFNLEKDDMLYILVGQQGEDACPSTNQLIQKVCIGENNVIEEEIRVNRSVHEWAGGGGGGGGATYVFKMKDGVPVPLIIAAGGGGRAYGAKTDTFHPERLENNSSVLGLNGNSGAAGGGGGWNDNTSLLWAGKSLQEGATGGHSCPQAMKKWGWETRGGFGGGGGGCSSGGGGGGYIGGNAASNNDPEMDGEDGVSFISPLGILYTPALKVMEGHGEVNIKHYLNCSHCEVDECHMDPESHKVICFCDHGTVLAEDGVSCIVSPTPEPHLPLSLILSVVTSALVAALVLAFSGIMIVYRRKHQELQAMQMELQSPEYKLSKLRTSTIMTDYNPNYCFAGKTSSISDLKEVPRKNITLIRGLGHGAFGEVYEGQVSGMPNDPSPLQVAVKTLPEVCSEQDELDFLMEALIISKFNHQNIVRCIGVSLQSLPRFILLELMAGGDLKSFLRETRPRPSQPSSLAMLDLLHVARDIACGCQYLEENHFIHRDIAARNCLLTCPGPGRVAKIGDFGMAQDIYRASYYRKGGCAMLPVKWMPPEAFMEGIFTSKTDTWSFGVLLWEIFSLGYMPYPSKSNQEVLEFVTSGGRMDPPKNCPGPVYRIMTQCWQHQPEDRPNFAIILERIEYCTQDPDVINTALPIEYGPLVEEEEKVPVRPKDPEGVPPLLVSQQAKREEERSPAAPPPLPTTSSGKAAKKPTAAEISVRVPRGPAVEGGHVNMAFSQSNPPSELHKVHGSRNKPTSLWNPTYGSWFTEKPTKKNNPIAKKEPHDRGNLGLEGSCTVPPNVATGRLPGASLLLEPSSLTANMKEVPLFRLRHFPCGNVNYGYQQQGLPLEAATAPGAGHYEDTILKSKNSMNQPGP

`CN(C(=O)CN1CCOCC1)c1ccc2sc3c(-c4cccc5c(=O)cc(N6CC7CCC(C6)O7)oc45)cccc3c2c1` [NU5455]: the inhibition at 1 µM was 2%.

The record behind these values is paper PMC6934184, “Selective DNA-PKcs inhibition extends the therapeutic index of localized radiotherapy and chemotherapy” (The Journal of Clinical Investigation, 2019).
